Where a name gives a salt, the structure may show the parent alone. Marks after values point to notes of the source that are not given here.
Experiments:
[1] = system: oedème de l'oreille induit par l'huile de croton; test: Croton oil-induced ear oedema test in the rat; format: in vivo; conditions: inhibition of oedema vs control animals, topical on right ear 1 h before croton oil, read 6 h after, hydro-ethanolic gel vehicle
Description: On applique de façon normalisée sur les faces interne et externe de l'oreille droite de rats une solution d'huile de croton ayant la composition suivante: • - pyridine : 4ml • - oxyde de diéthyle: 13ml • - huile de croton^*: 2ml • - eau qsp 20ml ^* SIGMA réf. C4755
Les animaux traités reçoivent, une heure avant l'application de l'huile de croton, une application sur l'oreille droite par voie topique, du produit étudié dans le véhicule suivant (placebo):gel hydroéthanolique à 2X d'hydroxypropyl cellulose (KLUCEL HF); (proportion eau-éthanol : 80/20).
Les animaux témoins ne reçoivent que l'application d'huile de croton.
Six heures après l'application d'huile de croton, on évalue l'importance de l'oedème par comparaison de l'oreille droite et de l'oreille gauche. On calcule ensuite l'inhibition de l'oedème, en pourcentage, par rapport aux animaux témoins.

[2] = system: érythème induit par UVB; test: UVB-induced erythema test in the guinea pig; format: in vivo, cobaye; conditions: dose 5 % p/v, 100 microlitres per site, topical 1 h after irradiation; vs animals given vehicle alone
Description: Les flancs des cobayes sont rasés à la tondeuse 24 heures avant l'expérience. On soumet les animaux à une irradiation à l'aide d'une lampe à vapeur de mercure. On irradie pendant 30 secondes deux sites de diamètre 1,5cm sur chaque flanc. Une heure après l'irradiation, on applique par voie topique le produit étudié sur chaque site irradié d'un seul flanc. Les observations de l'érythème sont faites 2h, 3,5h, 5h et 24h après l'application du produit. L'érythème est évalué selon une échelle de 0 à 5.
Les produits sont appliqués dans le véhicule suivant: • N,N-diméthylacétamide: 20ml • acétone : 40ml • éthanol : 40ml
On applique un volume de 100 microlitres par site.
On évalue l'importance de l'érythème en comparant les flancs droit et gauche. On calcule ensuite l'inhibition de l'érythème, en pourcentage, par rapport aux animaux témoins ayant reçu une application du véhicule seul.

Row | SMILES | POURCENTAGE D'INHIBITION ([1]; dose 0.1 % p/v) | POURCENTAGE D'INHIBITION ([1]; dose 0.5 % p/v) | POURCENTAGE D'INHIBITION DE L'ERYTHEME 5 HEURES APRES APPLICATION [2] | also measured
1 | CCCC(=O)O[C@]1(C(=O)CO)CC[C@H]2[C@@H]3CCC4=CC(=O)CC[C@]4(C)[C@H]3[C@@H](O)C[C@@]21C [HYDROCORTISONE 17 BUTYRATE, Hydrocortisone-17 butyrate] | 30% |  |  | 
2 | CC(C)(C)NCC(O)c1ccc(O)c(CO)c1 (stereo not shown) [SALBUTAMOL SULFATE, 2-(tert-butylamino)-1-(4-hydroxy-3-hydroxyphényl)éthanol] |  | 14% |  | 
3 | CC(C)(C)NCC(O)c1cc(O)cc(O)c1 (stereo not shown) [TERBUTALINE SULFATE, 1-(3,5-dihydroxyphényl)-2-(tert-butylamino)éthanol] |  | 12% |  | 
4 | C[C@]12CCC(=O)C=C1CC[C@@H]1[C@@H]2[C@@H](O)C[C@@]2(C)[C@H]1CC[C@]2(O)C(=O)CO [HYDROCORTISONE, Hydrocortisone] | 14% |  | 3 NS % | 
5 | CC(C)(C)NCC(O)c1ccc(O)c(CO)c1 (stereo not shown) [SALBUTAMOL, 2-(tert-butylamino)-1-(4-hydroxy-3-hydroxyphényl)éthanol] |  |  | 14 * % | 
6 | CC(C)NCC(O)COc1cccc2ccccc12 (stereo not shown) [PROPRANOLOL] |  |  |  | P[…]'INHIBITION ([1]; dose 0.5 % p/v): 5%
